Consider two compounds from publication PMC7738205 (Cell Cycle, 2020).

“Also recorded” adds a separate entry of the source.

Data set [1] has as its system SARS-CoV-2 strain USA-WA1/2020. Type of data set: cell-based. Particulars: dNHBE cells, conversion of 5.55 µM.
Data set [2] concerns human bronchial epithelial lining cells. Nature of the data set: Cytotoxicity in human bronchial epithelial lining cells. Type of data set: cell-based.
A further data set has as its system MA-104 cells. Particulars: visual or neutral red reads.
The test system of data set [3] is human epithelial airway cells. The settings on record: 1 µM dose; cited from earlier work.

Take `CC#C[C@]1(O)CCC2C3CCC4=CC(=O)CCC4=C3[C@@H](c3ccc4c(c3)OCO4)C[C@@]21C` (some centres unmarked) [PT150]: in data set [1], the “average EC90 expressed” value came out at 3.13 µg/mL. In addition, the “observed cytotoxicity at highest dose given” value in data set [2] (30 µM) is “No cytotoxicity; also recorded: no observed cytotoxicities”. Moreover, the “cytotoxicity to MA-104 cells” value in the data set on MA-104 cells is recorded as “significant cytotoxicity”. For the same compound, in data set [3], the “toxicity in human epithelial airway cells” value is “absence of toxicity”.

Consider `CCC(CC)COC(=O)[C@H](C)N[P@](=O)(OC[C@H]1O[C@@](C#N)(c2ccc3c(N)ncnn23)[C@H](O)[C@@H]1O)Oc1ccccc1` [Remdesivir, reference compound], for which the “observed cytotoxicity at highest dose given” value in data set [2] (1.66 µM) was “no observed cytotoxicities”.
